This assay deals with SARS-CoV-2. Kind of assay: microbe, parasite or virus in culture. The settings on record: Severe acute respiratory syndrome coronavirus 2, Vero C1008, 48 h; for IC50: read-out: pIC50 (converted).

For orientation: pIC50 means the negative decadic logarithm of the IC50, by convention in mol/L. A higher pIC50 goes with a low IC50.

pIC50: −log10 of the molar value.

Take `N[C@@H](Cc1ccc(O)c(O)c1)C(=O)O` [LEVODOPA]: the pIC50 is < 4.70 and the IC50 was > 20 µM.

Consider `Clc1cnccn1`, for which the pIC50 is < 4.70 and the IC50 is > 20 µM.

As for `COC(=O)[C@H](C)N[P@](=O)(OC[C@H]1O[C@@H](n2cc(/C=C/Br)c(=O)[nH]c2=O)C[C@@H]1O)Oc1ccccc1`, the pIC50 was < 4.70 and the IC50 is > 20 µM.

On to `NC(=O)OCC(O)c1ccccc1` (stereo unspecified) [STYRAMATE], for which the pIC50 is < 4.70 and the IC50 is > 20 µM.

Regarding `C[C@@H]1CN(Cc2ncccn2)C[C@H]1c1nc2c(cnn2C2CCOCC2)c(=O)[nH]1` [EDELINONTRINE], the pIC50 is < 4.70 and the IC50 was > 20 µM.

`CSc1ccc(C(=O)c2[nH]c(=O)[nH]c2C)cc1` [ENOXIMONE]: the pIC50 is < 4.70 and the IC50 is > 20 µM.

As for `O=C(O)CCCCCCCC(=O)O` [AZELAIC ACID], the pIC50 is < 4.70 and the IC50 was > 20 µM.

As for `OCCN1CCN(CCCN2c3ccccc3C=Cc3ccccc32)CC1` [OPIPRAMOL], the pIC50 was < 4.70 and the IC50 was > 20 µM.

For `COc1ccc(-c2cc(=O)c3c(O)cc(O)cc3o2)cc1O` [DIOSMETIN], the pIC50 was < 4.70 and the IC50 is > 20 µM.

Take `C/C=C1/C[C@@H](C)[C@](O)(CO)C(=O)OCC2=CCN3CC[C@@H](OC1=O)[C@@H]23`: the pIC50 was < 4.70 and the IC50 was > 20 µM.

With `CN(C)C(=O)Oc1cc(OC(=O)N(C)C)cc(C(O)CNC(C)(C)C)c1` (stereo unspecified) [BAMBUTEROL], the pIC50 is < 4.70 and the IC50 was > 20 µM.

For the molecule `NCC(=O)c1ccccc1`, the pIC50 was < 4.70 and the IC50 was > 20 µM.

Regarding `CN(c1nc2ccccc2s1)C1CCN(CC(O)COc2ccc(F)cc2)CC1` (stereo unspecified) [SABELUZOLE], the pIC50 is < 4.70 and the IC50 was > 20 µM.

As to `C=C[C@]1(C)C[C@@H](OC(=O)CSCCN(CC)CC)[C@]2(C)C(C)CC[C@]3(CCC(=O)[C@@H]32)[C@@H](C)[C@@H]1O` (stereo partly specified), the pIC50 was < 4.70 and the IC50 was > 20 µM.

In the case of `CCCCCCCC(=O)N[C@H](CN1CCCC1)[C@H](O)c1ccc2c(c1)OCCO2`, the pIC50 was < 4.70 and the IC50 was > 20 µM.

With `c1cn2cc(-c3ccc4cn[nH]c4c3)nc(Nc3ccc(N4CCOCC4)cc3)c2n1` [ENTOSPLETINIB], the pIC50 is < 4.70 and the IC50 is > 20 µM.

In the case of `CCCCNc1ccc(C(=O)OCCN(C)C)cc1` [TETRACAINE], the pIC50 is < 4.70 and the IC50 is > 20 µM.

Consider `CCN(CC)CCNC(=O)c1cc(Cl)c(N)cc1OC` [METOCLOPRAMIDE], for which the pIC50 was < 4.70 and the IC50 is > 20 µM.

Consider `O=C1c2ccccc2S(=O)(=O)N1CCCCN1CCN(c2ncccn2)CC1` [IPSAPIRONE], for which the pIC50 is < 4.70 and the IC50 is > 20 µM.

Regarding `N#CCC(=O)NN` [CYACETACIDE], the pIC50 is < 4.70 and the IC50 was > 20 µM.

For the molecule `C[N+]1(C)CCCC1COC(=O)C(O)(c1ccccc1)c1ccccc1` (stereo unspecified) [POLDINE], the pIC50 is < 4.70 and the IC50 was > 20 µM.

Turning to `CC(C)Oc1ccc(-c2nc(-c3cccc4c3CC[C@@H]4NCCO)no2)cc1C#N` [OZANIMOD], the pIC50 was < 4.70 and the IC50 is > 20 µM.

`CC1(C)CC2C1CCC1(C)OC2(C)CCC1O` (stereo unspecified) [3,7-EPOXYCARYOPHYLLAN-6-OL]: the pIC50 is < 4.70 and the IC50 was > 20 µM.

In the case of `CCn1c(=O)c2ccccc2n(-c2cccc([N+](=O)[O-])c2)c1=O` [NITRAQUAZONE], the pIC50 was < 4.70 and the IC50 was > 20 µM.

Consider `CC12CCC(C[N+](C)(CCC[N+](C)(C)C)C1)C2(C)C` (stereo unspecified), for which the pIC50 was < 4.70 and the IC50 is > 20 µM.

As to `C[C@]12CCC(=NOCCN)C[C@@H]1C(=O)C[C@@H]1[C@@H]2CC[C@]2(C)C(=O)CC[C@@H]12` [ISTAROXIME], the negative logarithm of the IC50 (pIC50) was < 4.70 and the IC50 is > 20 µM.

`NC(=O)CC[C@H](NC(=O)Cc1ccccc1)C(=O)O`: the pIC50 is < 4.70 and the IC50 was > 20 µM.

`CC(C)(O)[C@@H]1CC[C@](C)(C2[C@@H](O)C[C@@]3(C)[C@H]4C[C@H](O[C@H]5OC(CO)[C@H](O)C(O)C5O)[C@H]5C(C)(C)C(O[C@@H]6OC[C@@H](O)C(O)C6O)CC[C@@]56C[C@@]46CC[C@]23C)O1` (stereo partly specified): the pIC50 is < 4.70 and the IC50 was > 20 µM.

On to `Cc1c(-c2cnccn2)ssc1=S` [OLTIPRAZ], for which the pIC50 is < 4.70 and the IC50 is > 20 µM.

For `C[N+]1(C)[C@@H]2C[C@@H](OC(=O)C(O)(c3cccs3)c3cccs3)C[C@H]1[C@@H]1O[C@@H]12` [TIOTROPIUM], the pIC50 is < 4.70 and the IC50 was > 20 µM.

For the molecule `CC(=O)NS(=O)(=O)c1ccc(N)cc1` [SULFACETAMIDE], the pIC50 was < 4.70 and the IC50 is > 20 µM.

`CCC(C)(C)C(=O)O[C@H]1C[C@@H](C)C=C2C=C[C@H](C)[C@H](CC[C@@H]3C[C@@H](O)CC(=O)O3)[C@H]21` [SIMVASTATIN]: the pIC50 is < 4.70 and the IC50 was > 20 µM.

`CC(=O)Oc1ccc(C(c2ccc(OC(C)=O)cc2)c2ccccn2)cc1` [BISACODYL]: the pIC50 is < 4.70 and the IC50 is > 20 µM.

Regarding `Cc1n[nH]c(=O)[nH]c1=O`, the negative-log IC50 (pIC50) was < 4.70 and the IC50 was > 20 µM.

`O=C(O)C(=O)Cc1c[nH]c2ccccc12`: the pIC50 is < 4.70 and the IC50 was > 20 µM.

For `Cc1cccc(C)c1NC1=NCCCS1` [XYLAZINE], the negative-log IC50 (pIC50) was < 4.70 and the IC50 was > 20 µM.

As for `NCCC(O)C(=O)N[C@H]1C[C@@H](N)[C@H](O[C@H]2O[C@H](CN)[C@@H](O)[C@H](O)[C@H]2O)[C@@H](O)[C@@H]1O[C@H]1O[C@H](CO)[C@@H](O)[C@H](N)[C@H]1O` (stereo partly specified), the pIC50 was < 4.70 and the IC50 is > 20 µM.

In the case of `Cc1cc(C)cc(OCC2CNC(=O)O2)c1` (stereo unspecified) [METAXALONE], the pIC50 is < 4.70 and the IC50 is > 20 µM.

As for `CC(=O)O[C@]1(C(C)=O)CC[C@H]2[C@@H]3C=C(Cl)C4=CC(=O)[C@@H]5C[C@@H]5[C@]4(C)[C@H]3CC[C@@]21C` [CYPROTERONE ACETATE], the pIC50 is < 4.70 and the IC50 is > 20 µM.

Consider `CCCCNC(=O)OCC(C)(CCC)COC(N)=O` (stereo unspecified) [TYBAMATE], for which the pIC50 is < 4.70 and the IC50 is > 20 µM.

For the molecule `CCOC(=O)Nc1nc2ccccc2[nH]1` [LOBENDAZOLE], the pIC50 is < 4.70 and the IC50 is > 20 µM.

On to `O=S(=O)(O)CCN1CCN(CCO)CC1`, for which the pIC50 was < 4.70 and the IC50 is > 20 µM.

As for `CC(C)[C@H](N)C(=O)O[C@@H]1[C@@H](CO)O[C@@H](n2ccc(N)nc2=O)[C@]1(C)O` [VALOPICITABINE], the pIC50 is < 4.70 and the IC50 was > 20 µM.

`NCCCN`: the pIC50 was < 4.70 and the IC50 is > 20 µM.

`COC(=O)c1c(C)cc(OC(=O)c2c(C)cc(O)c(C=O)c2O)c(C)c1O` [ATRANORIN]: the pIC50 was < 4.70 and the IC50 is > 20 µM.

In the case of `CN[C@H](CC(C)C)C(=O)N[C@H]1C(=O)N[C@@H](CC(N)=O)C(=O)N[C@H]2C(=O)N[C@H]3C(=O)N[C@H](C(=O)N[C@H](C(=O)O)c4cc(O)cc(O)c4-c4cc3ccc4O)[C@H](O)c3ccc(c(Cl)c3)Oc3cc2cc(c3O[C@@H]2O[C@H](CO)[C@@H](O)[C@H](O)[C@H]2O[C@H]2C[C@](C)(N)[C@H](O)[C@H](C)O2)Oc2ccc(cc2Cl)[C@H]1O` [VANCOMYCIN], the pIC50 was < 4.70 and the IC50 was > 20 µM.

Take `CNC(=O)c1c(-c2ccc(F)cc2)oc2cc(N(CCO)S(C)(=O)=O)c(C3CC3)cc12` [NESBUVIR]: the pIC50 is < 4.70 and the IC50 was > 20 µM.

For the molecule `N#Cc1cc2c(OCC(O)CN3CCN(C(c4ccccc4)c4ccccc4)CC3)cccc2[nH]1` (stereo unspecified), the pIC50 was < 4.70 and the IC50 was > 20 µM.

Consider `Nc1ncnc2c1ncn2[C@@H]1O[C@H](CO)[C@@H](O)[C@H]1O` [ADENOSINE], for which the pIC50 is < 4.70 and the IC50 was > 20 µM.

Consider `NCCCCCCNS(=O)(=O)c1cccc2c(Cl)cccc12`, for which the pIC50 was < 4.70 and the IC50 is > 20 µM.

Turning to `COc1cc2ccc(=O)oc2cc1O` [SCOPOLETIN], the pIC50 was < 4.70 and the IC50 was > 20 µM.

For the molecule `Oc1cc(O)c2cc(O)c(-c3ccc(O)c(O)c3)[o+]c2c1` [CYANIDIN], the pIC50 is < 4.70 and the IC50 is > 20 µM.

Regarding `CCN(CC)CCOC(=O)C1(C2CCCCC2)CCCCC1` [DICYCLOMINE], the pIC50 is < 4.70 and the IC50 is > 20 µM.

For `CC[C@H](NC(=O)c1c(O)c(-c2ccccc2)nc2ccccc12)c1ccccc1` [TALNETANT], the pIC50 is < 4.70 and the IC50 is > 20 µM.

Regarding `c1ccc2c(CCC3CCNCC3)c[nH]c2c1` [INDALPINE], the pIC50 was < 4.70 and the IC50 was > 20 µM.

For the molecule `C=CC(=O)Nc1cccc(Nc2nc(Nc3ccc(N4CCN(C(C)=O)CC4)cc3OC)ncc2C(F)(F)F)c1` [ROCILETINIB], the pIC50 was < 4.70 and the IC50 is > 20 µM.

Regarding `CCCc1cc2c(O)c(C(=O)OC)cnc2cc1N(CC)CC` [AMQUINATE], the negative logarithm of the IC50 (pIC50) is < 4.70 and the IC50 was > 20 µM.

Take `CCOc1ccccc1OCC1CNCCO1` (stereo unspecified) [VILOXAZINE]: the pIC50 is < 4.70 and the IC50 was > 20 µM.

Values taken from ChEMBL document CHEMBL4651402, “Screening of ~5500 FDA-approved drugs and clinical candidates for anti-SARS-CoV-2 activity” (2021).
